From paper PMC9481597 (Communications Biology, 2022)
Where two headings read alike, the source gives them in different places.

Tests used:
MPro^C145A = MPro^C145A (Severe acute respiratory syndrome coronavirus 2, UniProt P0DTC1, C3408A); assay type: binding, SARS-CoV-2
[1] = system: MPro^WT (SARS-CoV-2 main protease, mature dimer); details: ITC, cited from earlier work; for Kd: read-out: Kd = Ki
[2] = system: MPro^WT (SARS-CoV-2 main protease, mature dimer); assay type: binding
MPro^1-199(C145A) [3] = molecular target: T1, MPro^1-199(C145A) (Severe acute respiratory syndrome coronavirus 2, UniProt P0DTC1, C3408A); design: species or system SARS-CoV-2
MPro^1-199(C145A) [4] = molecular target: T1, MPro^1-199(C145A); assay type: binding, SARS-CoV-2

Row | Compound | Kd = Ki (MPro^C145A) | N ([1]; GC373) | ΔG ([1]; GC373) [kcal/mol] | ΔH ([1]; GC373) [kcal/mol] | ΔS ([1]; GC373) [cal/mol/K] | Kd ([1]; GC373) [nM] | increase in binding affinity by nitrile warhead reacting with C145 [2] | N (MPro^C145A) | ΔH (MPro^C145A) | ΔS (MPro^C145A) [cal/mol/K] | Kdimer.app (MPro^1-199(C145A) [3]) [µM] | dimer formation in SV-AUC (MPro^1-199(C145A) [3]) | protein-inhibitor adduct in mass spectra (MPro^1-199(C145A) [4]) | N ([1]; NMV) | ΔG ([1]; NMV) | ΔH ([1]; NMV) | ΔS ([1]; NMV) [cal/mol/K] | Kd ([1]; NMV) [nM]
1 | CC(C)C[C@H](NC(=O)OCc1ccccc1)C(=O)N[C@H](C=O)C[C@@H]1CCNC1=O [GC373] | no response | 0.99 ± 0.01 | -9.4 | -6.7 ± 0.1 | 9.1 | 150 ± 30 |  |  |  |  |  |  |  |  |  |  |  | 
2 | CC(C)(C)[C@H](NC(=O)C(F)(F)F)C(=O)N1C[C@H]2[C@@H]([C@H]1C(=O)N[C@H](C#N)C[C@@H]1CCNC1=O)C2(C)C [NMV, nirmatrelvir] |  |  |  |  |  |  | ~ 400 times | 0.96 ± 0.04 | –3.89 ± 0.2 kcal/mol | 12.6 | >200 | no faster sedimenting species other than a monomer was observed | absence of the imidate thioester adduct | 0.99 ± 0.003 | –11.2 kcal/mol | –10.75 ± 0.7 kcal/mol | 1.57 | 7 ± 3
